By half-life is commonly meant the time needed for the level to fall by half in the phase considered. As a reminder, the AUC(0-t) is exposure summed from dosing to a finite time, without extrapolation to infinity. Low readings indicate less exposure, high ones more exposure. As a reminder, the Cmax is the highest concentration seen after dosing. In general, Tmax refers to the time at which the peak concentration occurs. A word on the AUC: it is concentration integrated over time.

The values that follow come from PMC5045448 (Analytical chemistry, 2016).

Read-outs that look alike come from different tables or passages of the source. Marks after values point to notes of the source that are not given here.

In data set [1] the test system is polyclonal antibodies prepared by Song et al. The settings on record: cited from earlier work.
Another data set has as its system mAb 3H7A10. The data set can be described thus: Indirect competitive ELISA. The format is binding, Balb/c mice. The following applies: for Cross-reactivity: (IC50 of artemisinin/IC50 of other compound) × 100; for cross reactivities: artemisinin-specific mAb from position 9 hapten; for competitive inhibition: mAb 3H7A10, up to 20,000 ng mL^−1. Background: In an ELISA, binding on a coated surface is turned into a signal by an enzyme label.

In data set [2] the test system is mAbs raised by artelinic acid-BSA conjugate. The settings on record: cited from earlier work.
The test system of data set [3] is mAbs reported by He et al. The following applies: relative to artemisinin; cited from earlier work.
The conditions of data set [4]: rats, cited from earlier work.
The conditions of data set [5]: dogs, cited from earlier work.
The conditions of data set [6]: goat, cited from earlier work.
The next data set is described as follows: in vivo. The settings on record: Sprague-Dawley, rat, ip, 10 mg/kg. Also on record: species or system Sprague-Dawley rats.
For data set [7] the following is noted: humans, cited from earlier work.
Data set [8] deals with mAbs generated by Tanaka et al. The settings on record: relative to artemisinin; cited from earlier work.

As for `CO[C@H]1O[C@@H]2O[C@@]3(C)CC[C@H]4[C@H](C)CC[C@@H]([C@H]1C)[C@@]24OO3` [Artemether], in data set [1], the “recognition by polyclonal antibodies” value is “equally well”. In addition, the Cross-reactivity is 0% in the data set with mAb 3H7A10 (mAb 3H7A10) and 3% in data set [3]. Further, the cross reactivities entry in the data set with mAb 3H7A10 is reported as “almost no cross reactivities”. Further, the competitive inhibition entry with mAb 3H7A10 (icELISA) was “No competitive inhibition”. Further, in [2], the “binding by mAbs” value is reported as “approximately the same level”.
As for `C[C@@H]1CC[C@H]2[C@@H](C)C(=O)O[C@@H]3O[C@@]4(C)CC[C@@H]1[C@]32OO4` [Artemisinin], in data set [4] (in all these studies), the half-life was ~ 30 min. Moreover, the AUC0-24h in data set [4] (intraperitoneal injection, 10 mg/kg) is 0.132 µM/h. Also, the AUC0-3h in [4] (oral administration, 10 mg/kg) is 36.4 ng·h/mL. The bioavailability entry in data set [5] (oral) was “bioavailability appeared low”. Further, in the data set on mAb 3H7A10 (mAb 3H7A10), the Cross-reactivity amounted to 100 ± 4.6%. For the same compound, the IC50 in the data set on mAb 3H7A10 (icELISA, mAb 3H7A10, means of triplicate ± SD, NI = no inhibition observed with up to 20,000 ng mL^−1 of the analytes) is reported as 2.60 ±0.12 ^b ng/mL. For the same compound, in data set [6] (large amount of unabsorbed artemisinin eliminated in feces), the absorption and bioavailability result is “slow absorption and low bioavailability”. In addition, in “in vivo”, the AUC(0-t) was determined as 43.7 ng·h/mL, the maximum concentration (Cmax) amounted to 29.1 ± 3 ng/mL, the Tmax was 5 min and the half-life was 22.8 min. Besides, in [7] (another study), the AUC was 754 ng·h/mL and the maximum concentration (Cmax) is 167 ng/mL. Besides, in data set [7] (one study), the AUC was 2,611 ng mL^−1 h and the Cmax is 623 ng/mL. Further, the half-life in data set [7] is listed as ~ 2 h. Moreover, the “binding by mAbs” value in data set [2] is “approximately the same level”.
As for `C[C@H]1[C@H](OC(=O)CCC(=O)O)O[C@@H]2O[C@@]3(C)CC[C@H]4[C@H](C)CC[C@@H]1[C@@]24OO3` [Artesunate], the Cross-reactivity in data set [8] is on record as 630%; in the data set on mAb 3H7A10 (mAb 3H7A10), 0%; in data set [3] it was 650%. In addition, the “recognition by polyclonal antibodies” value in data set [1] was “equally well”. Moreover, in the data set on mAb 3H7A10, the cross reactivities entry is listed as “almost no cross reactivities”. Further, in the data set on mAb 3H7A10 (icELISA), the competitive inhibition result is reported as “No competitive inhibition”.
In the case of `CCN(CC)CCCC(C)Nc1ccnc2cc(Cl)ccc12.O=P(O)(O)O.O=P(O)(O)O` (stereo not drawn) [Chloroquine diphosphate salt], the Cross-reactivity in the data set with mAb 3H7A10 (mAb 3H7A10) is given as 0%.
Regarding `C[C@H]1[C@@H](O)O[C@@H]2O[C@@]3(C)CC[C@H]4[C@H](C)CC[C@@H]1[C@@]24OO3` [Dihydroartemisinin], the Cross-reactivity in [8] is 30%; with mAb 3H7A10 (mAb 3H7A10), 0%; in data set [3], 57%. For the same compound, the “recognition by polyclonal antibodies” value in data set [1] was “equally well”. Moreover, in [5] (oral artemisinin), the blood concentrations was less than 100 nM. The cross reactivities entry in the data set on mAb 3H7A10 is given as “almost no cross reactivities”. Further, the competitive inhibition entry in the data set on mAb 3H7A10 (icELISA) is “No competitive inhibition”. Besides, in [6] (after artemisinin), the “time of peak of the metabolite” value is 12 h.
For the compound `CCCCN(CCCC)CC(O)c1cc(Cl)cc2c1-c1ccc(Cl)cc1/C2=C/c1ccc(Cl)cc1` (stereo not drawn) [Lumefantrine], the Cross-reactivity with mAb 3H7A10 (mAb 3H7A10) is on record as 0%.
Regarding `COc1cc(NC(C)CCCN)c2ncccc2c1` (stereo not drawn) [Primaquine phosphate], the Cross-reactivity in the data set on mAb 3H7A10 (mAb 3H7A10) stood at 0%.
For `CCc1nc(N)nc(N)c1-c1ccc(Cl)cc1` [Pyrimethamine], in the data set with mAb 3H7A10 (mAb 3H7A10), the Cross-reactivity was 0%.
The same measure, in the same setting: the figure for `C=C[C@H]1C[N@@]2CC[C@H]1C[C@H]2[C@H](O)c1ccnc2ccc(OC)cc12` [Quinine] is 0%.
